Assay results published in patent publication US10927070B2, “Compositions and methods for treating cancer” (Cedars-Sinai Medical Center, priority 2016, dated 2021).
“Also recorded” adds a separate entry of the source.

Key:
C4-2 = assay: Cell-Titer GLO viability / proliferation in C4-2; format: cell-based, human
Protocol: (§1) ACTB and GAPDH expression levels were used for normalization. […] Cells were seeded in 96-well plates at 500 cells per well in a total volume of 100 ul media containing 10% FBS. Serially diluted compound CSRM617 was added to the cells 24 h later. After 48 h incubation, cell viability was assessed by Cell-Titer GLO (Promega). The values were normalized and IC50 was calculated using GraphPad Prism software. […] RWPE-1 is a benign prostate cell line.

22RV1 = assay: Cell-Titer GLO viability / proliferation in 22RV1; format: cell-based, human
Protocol: as §1

[1] = Tolerability in treated mice (body weight, feeding, behavior); format: in vivo; details: 50 mg/Kg/d
Protocol: (§2) To determine whether Compound CSRM617 is effective against CRPC metastases, 22Rv1 cells were injected intracardially in SCID mice, and the animals were subsequently treated with the above dose of the compound for several weeks. […] To test for evidence of bioactivity of Compound CSRM617 in situ, PEG10 protein levels were measured using IHC followed by digital imaging in adrenal gland tumors.

[2] = target: T1, purified recombinant OC2 HOX domain (Homo sapiens, UniProt O95948); assay: Surface plasmon resonance (SPR) binding of compound to immobilized OC2-HOX domain
T1 construct: made in house
T1 sequence (O95948 426-485 limits assumed): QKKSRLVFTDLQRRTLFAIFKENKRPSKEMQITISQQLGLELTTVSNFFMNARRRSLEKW
Protocol: FIG. 13 depicts in accordance with various embodiments of the invention, Compound CSRM617 binds to ONECUT2 in a dose-dependent manner. To measure binding features of CSRM617, the OC2-HOX domain was recombinantly produced. Purified OC2-HOX binding domain was next immobilized on a HisCap sensor chip and CSRM617 was analyzed at serial doubling concentrations maximized at 100 μM.
FIG. 25A-FIG. 25C depict in accordance with various embodiments of the invention, FIG. 25A: (Left panel) representative sensorgram showing dose-dependent OC2-Compound CSRM617 interaction measured by surface plasmon resonance (SPR). Real-time binding was quantified by immobilizing biotinylated OC2 protein on the streptavidin biosensor with varying concentrations of Compound CSRM617 1.56-100 μm). (Right panel) OC2 binding to the experimentally determined OC2 binding site on the PEG10 promoter assayed by SPR. FIG. 25B: suppression of PEG10 protein expression in 22Rv1 tumors. FIG. 25C: suppression of PEG10 protein expression in 22Rv1 tumors.
(§3) To assess whether OC2 might be inhibited with a small molecule, we developed a structural model of OC2 binding to DNA using homology modeling, and conducted a virtual screen of a chemical library consisting of […] compounds. 15 compounds were selected for biological activity testing using in vitro assays. One compound, compound CSRM617, was deemed to be biologically active and was selected for further study. […] To evaluate the selectivity of Compound CSRM617 for genes regulated by OC2, we generated gene expression microarray data from 22Rv1 cells treated with Compound CSRM617 for 4, 6 and 16 h. […] As described above, we identified PEG10 as a gene directly regulated by OC2 binding to the PEG10 promoter. […] The OC2 HOX fragment bound with high affinity (Kd=1 nM) to a DNA probe corresponding to the experimentally determined OC2 binding motif in the PEG10 promoter (FIG. 25A, right panel).

PEG10 protein = PEG10 protein by IHC and digital imaging in tumors of treated mice; format: in vivo; details: adrenal gland tumors; IHC
Protocol: as §2

LNCaP = assay: Cell proliferation in vitro in LNCaP; format: cell-based, human
Protocol: as §1

22Rv1 metastases = assay: 22Rv1 intracardiac injection metastasis model; format: in vivo, SCID mice; details: 50 mg/kg daily; 4 w after intracardiac injection
Protocol: FIG. 15 depicts in accordance with various embodiments of the invention, Compound CSRM617 inhibits metastasis. 22Rv1-luciferase labeled cells were injected intracardially and mice were randomized (n=7 per group) to receive vehicle or 50 mg/kg^−1 CSRM617, daily. BLI images of mice bearing metastatic tumors 4 w after the injection (left) and graphical representation of normalized BLI signals (right). Mean±SD (n=7 per group) is shown; **P<0.01.
as §2

[3] = system: 22RV1 prostate cancer cells; assay: Apoptosis induction by cleaved Caspase-3 and PARP in 22RV1; format: cell-based, human
From the text: GAPDH served as a loading control.

[4] = system: human prostate cancer cell lines; assay: Growth, apoptosis and IC50 across prostate cell lines versus OC2 expression; format: cell-based; details: PC cell lines that express medium to high levels of OC2
Protocol: as §1, §3

PEG10 mRNA = PEG10 mRNA expression in 22Rv1 (microarray); format: cell-based, human; details: 10 μM, 4, 6 and 16 h
Protocol: FIG. 16A-FIG. 16C depict in accordance with various embodiments of the invention, that OC2 activates PEG10, a driver of transdifferentiation from adenocarcinoma to neuroendocrine cancer. […] FIG. 16C: we have generated gene expression microarray data from 22Rv1 cells treated with the compound at a concentration of 10 μM for 4, 6 and 16 h. […] By inhibiting OC2 with compound CSRM617 the expression levels of the NE driver PEG10 are reduced.
as §3

22Rv1 xenografts = assay: Subcutaneous 22Rv1 xenograft growth in mice; format: in vivo; details: established 22Rv1 xenografts; 50 mg/Kg/d; 50 mg/kg/day
OC2 target genes = assay: Gene expression microarray and GSEA of OC2 target genes in 22Rv1; format: cell-based, human; details: 10 μM, 4, 6 and 16 h
Protocol: FIG. 14A-FIG. 14E depict in accordance with various embodiments of the invention, Compound CSRM617 perturbs OC2-regulated genes and suppresses 22Rv1 tumor growth in mice. To evaluate the specificity of CSRM617 for genes regulated by OC2, we generated gene expression microarray data from 22Rv1 cells treated with the compound at a concentration of 10 μM for 4, 6 and 16 h.
as §3

[5] = Solubility relative to CSRM617; format: physicochemical
22Rv1 cells = assay: CellTiter-Glo cell viability of CSRM617 derivatives in 22Rv1; format: cell-based, human; details: for potency (IC50) compared with compound CSRM617: 100 μM to 0.2 μM, 48 hours; for cell viability: 48 hours post treatment, CellTiter-Glo
Protocol: FIG. 17A: 22Rv1 cells were plated at a density of 1000 cells per well, in triplicate, in a 96 well plate. The next day cells were exposed to compound CSRM617, several derivatives or vehicle (1% DMSO) at a concentration of 25 μM. Viability was measured 48 hours post treatment using CellTiter-Glo Luminescent Cell Viability Assay (Promega). FIG. 17B: 22Rv1 cells were plated at a density of 1000 cells per well, in triplicate, in a 96 well plate. The next day, TO reading was collected and cells were exposed to compound CSRM617, the derivatives or vehicle (1% DMSO) at 2-fold concentration ranging from 100 μM to 0.2 μM. Viability was measured 48 hours post treatment using CellTiter-Glo Luminescent Cell Viability Assay (Promega).

SMILES	direct binding to OC2 [2]	solubility compared with compound CSRM617 [5]	potency (IC50) compared with compound CSRM617 (22Rv1 cells)	cell viability (22Rv1 cells)	further results
N[C@@H](CO)C(=O)N/N=C/c1ccc(O)c(O)c1O [CSRM617]	binds directly to OC2	–	–	–	cell proliferation in vitro (C4-2): inhibited cell proliferation; sensitivity (IC50) to compound (C4-2; 48 h incubation): highest sensitivity; sensitivity (IC50) to compound (22RV1; 22RV1, 48 h incubation): highest sensitivity; cell proliferation in vitro (22RV1; 22Rv1): inhibited cell proliferation; body weight [1]: did not affect body weight; feeding patterns or behavior [1]: did not affect; Kd ([2]; SPR, serial doubling concentrations up to 100 μM): 7.43 µM; PEG10 protein levels in tumors (PEG10 protein): significantly down-regulated; cell proliferation in vitro (LNCaP): inhibited cell proliferation; onset and growth of diffuse metastases (BLI) (22Rv1 metastases): reduces significantly the onset and growth of diffuse metastases; also recorded: inhibited onset and growth of diffuse metastases; apoptosis (cleaved Caspase-3 and PARP) [3]: induces apoptosis; apoptosis [4]: induced apoptosis; cell growth [4]: inhibited cell growth; PEG10 mRNA expression (PEG10 mRNA): downregulated in a time-dependent manner; subcutaneous tumor growth (22Rv1 xenografts): reduces tumor growth; also recorded: inhibited subcutaneous growth; perturbation of OC2 target genes (GSEA) (OC2 target genes): significant perturbation of OC2 target genes
O=C(CNC(=O)Cc1ccc(O)c(O)c1O)NO [Compound 843]	directly bind OC2	improved solubility	comparable activity	reduces cell viability	–
CC(=O)NCCC(=O)NCCc1ccc(O)c(O)c1O [Compound 844]	–	improved solubility	comparable activity	reduces cell viability	–
NC(=O)C1CCCCN1C(=O)NCCc1ccc(O)c(O)c1O (centres unmarked) [Compound 123]	directly bind OC2	improved solubility	comparable activity	reduces cell viability	–
N[C@@H](CO)C(=O)NNCc1ccc(O)c(O)c1O [Compound 122]	directly bind OC2	improved solubility	comparable activity	reduces cell viability	–
O=C1CCC(C(=O)NCCc2ccc(O)c(O)c2O)CN1 (centres unmarked) [Compound 848]	–	improved solubility	comparable activity	reduces cell viability	–
